The experiment concerns the target GCN2 (Homo sapiens, UniProt Q9P2K8). Put plainly: GCN2 enzymatic endpoint assay: phosphorylation of GFP-eIF2α measured by TR-FRET (Lanthascreen). It is filed as biochemical. The essentials: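 Read-out is the TR-FRET ratio of acceptor signal at 520 nm to terbium donor at 495 nm, rising with antibody binding to phosphorylated GFP-eIF2α. Endpoint format: 2 μM ATP, 80 nM substrate, 90 minutes at room temperature, EDTA stop.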
For orientation: TR-FRET usually uses a lanthanide donor and a delayed reading to cut background.

Setting [1] is: tested as described in Example 77, compound and/or hydrochloride, dihydrochloride or trifluoroacetic acid salt, read-out: IC 50 Activity.

Molecules are shown by their SMILES. Counter-ions that a name gives are not always drawn. Like-named read-outs stand apart in the source and are kept apart here.

Sequence of GCN2 (Q9P2K8 whole entry): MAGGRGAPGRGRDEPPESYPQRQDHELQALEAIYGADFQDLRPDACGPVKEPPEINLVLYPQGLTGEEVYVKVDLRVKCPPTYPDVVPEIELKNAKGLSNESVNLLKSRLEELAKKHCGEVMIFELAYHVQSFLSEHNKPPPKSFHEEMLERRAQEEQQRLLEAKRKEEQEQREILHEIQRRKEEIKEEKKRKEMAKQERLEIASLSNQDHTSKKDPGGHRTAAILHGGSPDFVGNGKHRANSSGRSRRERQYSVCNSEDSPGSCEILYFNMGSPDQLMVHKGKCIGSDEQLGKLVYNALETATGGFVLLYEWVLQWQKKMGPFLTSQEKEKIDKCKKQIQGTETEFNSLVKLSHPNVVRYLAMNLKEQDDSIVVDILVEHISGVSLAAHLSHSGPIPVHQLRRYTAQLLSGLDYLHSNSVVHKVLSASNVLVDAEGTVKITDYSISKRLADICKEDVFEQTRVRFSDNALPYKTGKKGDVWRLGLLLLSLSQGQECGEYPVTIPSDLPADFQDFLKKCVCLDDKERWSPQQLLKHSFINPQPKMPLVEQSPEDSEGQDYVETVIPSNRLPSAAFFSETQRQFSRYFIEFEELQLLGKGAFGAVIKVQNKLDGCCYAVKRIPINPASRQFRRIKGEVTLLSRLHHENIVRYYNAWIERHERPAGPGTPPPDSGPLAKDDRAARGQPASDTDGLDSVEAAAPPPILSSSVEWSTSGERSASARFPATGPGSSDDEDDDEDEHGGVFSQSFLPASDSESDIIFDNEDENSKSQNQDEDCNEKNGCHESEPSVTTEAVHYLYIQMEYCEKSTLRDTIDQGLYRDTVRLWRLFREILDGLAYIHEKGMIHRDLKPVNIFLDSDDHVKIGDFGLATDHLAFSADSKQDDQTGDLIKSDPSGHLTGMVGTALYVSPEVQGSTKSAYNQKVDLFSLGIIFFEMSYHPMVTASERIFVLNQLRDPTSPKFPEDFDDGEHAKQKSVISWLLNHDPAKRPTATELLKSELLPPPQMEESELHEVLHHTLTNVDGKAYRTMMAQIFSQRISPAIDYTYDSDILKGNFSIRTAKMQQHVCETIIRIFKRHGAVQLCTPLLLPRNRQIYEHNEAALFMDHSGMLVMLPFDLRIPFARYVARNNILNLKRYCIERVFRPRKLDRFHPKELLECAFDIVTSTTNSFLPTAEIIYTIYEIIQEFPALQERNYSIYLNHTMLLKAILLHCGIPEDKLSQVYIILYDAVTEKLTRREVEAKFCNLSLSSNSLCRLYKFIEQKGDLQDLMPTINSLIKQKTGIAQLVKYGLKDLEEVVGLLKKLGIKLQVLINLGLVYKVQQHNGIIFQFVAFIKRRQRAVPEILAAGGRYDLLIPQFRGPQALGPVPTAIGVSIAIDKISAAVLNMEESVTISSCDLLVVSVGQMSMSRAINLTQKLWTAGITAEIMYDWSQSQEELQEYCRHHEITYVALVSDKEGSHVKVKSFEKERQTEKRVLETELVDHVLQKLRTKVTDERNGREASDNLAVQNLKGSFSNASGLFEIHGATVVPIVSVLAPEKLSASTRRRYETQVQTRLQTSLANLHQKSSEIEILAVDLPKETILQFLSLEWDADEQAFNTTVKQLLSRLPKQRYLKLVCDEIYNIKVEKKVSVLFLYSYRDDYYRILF

As to `CNC(=O)[C@]1(C)CC[C@@H](Nc2ncc3c(Br)nn(-c4cc(C(C)CO)c5ncccc5c4)c3n2)C1` (stereo partly drawn) [(1R,3R)-3-[[3-bromo-1-[8-(2-hydroxy-1-methyl-ethyl)-6-quinolyl]pyrazolo[3,4-d]pyrimidin-6-yl]amino]-N,1-dimethyl-cyclopentanecarboxamide], under setting [1], the IC50 was less than 25 nM.

For the compound `CNC(=O)C1(C)CC[C@@H](Nc2ncc3c(Br)nn(-c4ccc5[nH]c(=O)cc(C)c5c4)c3n2)C1` (stereo partly drawn) [(3R)-3-[[3-bromo-1-(4-methyl-2-oxo-1H-quinolin-6-yl)pyrazolo[3,4-d]pyrimidin-6-yl]amino]-N,1-dimethyl-cyclopentanecarboxamide], the IC50 under setting [1] was in the range of 25 to 200 nM.

Regarding `N#Cc1cc(-n2nc(Br)c3cnc(N[C@@H]4CC[C@@H](C(=O)N=S5(=O)CCNCC5)C4)nc32)cc2cccnc12`, the IC50 under setting [1] was 25 to 200 nM.

For the compound `CNC(=O)[C@]1(CCC#N)CC[C@@H](Nc2ncc3c(Br)nn(-c4cc(F)c5ncccc5c4)c3n2)C1` [Example 43, (1S,3R)-3-((3-bromo-1-(8-fluoroquinolin-6-yl)-1H-pyrazolo[3,4-d]pyrimidin-6-yl)amino)-1-(2-cyanoethyl)-N-methylcyclopentane-1-carboxamide hydrochloride], for the setting “GCN2 biochemical IC50, 4 nM GCN2, 2 μM ATP, 80 nM GFP-eIF2α, 90 min RT, read-out: GCN2 activity”, the IC50 is less than 25 nM.

As for `Cc1nnc(-c2ccc(-n3nc(Br)c4cnc(N[C@@H]5CCC6(CC(=O)N(C)C6=O)C5)nc43)cc2)s1` (some centres unmarked), under setting [1], the IC50 was less than 25 nM.

For the compound `C[C@@H]1COCCN1C(=O)[C@@H]1CC[C@@H](Nc2ncc3c(Br)nn(-c4ccc5ncccc5c4)c3n2)C1` [((1R,3R)-3-((3-bromo-1-(quinolin-6-yl)-1H-pyrazolo[3,4-d]pyrimidin-6-yl)amino)cyclo-pentyl)((R)-3-methylmorpholino)methanone], under setting [1], the IC50 was 25 to 200 nM.

Turning to `CNC(=O)[C@]1(C)CC[C@@H](Nc2ncc3c(Br)nn(-c4ccc5c(c4)N(C(=O)C4CNC4)CC5)c3n2)C1` [(1R,3R)-3-[[1-[1-(azetidine-3-carbonyl)indolin-6-yl]-3-bromo-pyrazolo[3,4-d]pyrimidin-6-yl]amino]-N,1-dimethyl-cyclopentanecarboxamide], the IC50 under setting [1] is 25 to 200 nM.

On to `CNC(=O)[C@]1([C@@H](C)C#N)CC[C@@H](Nc2ncc3c(Br)nn(-c4ccc(-c5nnc(C)s5)cc4)c3n2)C1` [(1R,3R)-3-[[3-bromo-1-[4-(5-methyl-1,3,4-thiadiazol-2-yl)phenyl]pyrazolo [3,4-d]pyrimidin-6-yl]amino]-1-[(1R)-1-cyanoethyl]-N-methyl-cyclopentane-carboxamide], for which the IC50 under setting [1] lay within 25 to 200 nM.

Take `CNC(=O)[C@]1(C)CC[C@@H](Nc2ncc3c(Br)nn(-c4ccc5ncsc5c4)c3n2)C1` [(1R,3R)-3-[[1-(1,3-benzothiazol-6-yl)-3-bromo-pyrazolo[3,4-d]pyrimidin-6-yl]amino]-N,1-dimethyl-cyclopentane-carboxamide]: the IC50 under setting [1] lay in the range of 25 to 200 nM.

Consider `CNC(=O)[C@H]1CC[C@@H](Nc2ncc3c(Br)nn(-c4cnc5c(C#N)cccc5c4)c3n2)C1` [(1S,3R)-3-[[3-bromo-1-(8-cyano-3-quinolyl)pyrazolo[3,4-d]pyrimidin-6-yl]amino]-N-methyl-cyclopentanecarboxamide], for which the IC50 under setting [1] was in the range of 25 to 200 nM.

Take `CNC(=O)[C@]1(C)CC[C@@H](Nc2ncc3c(Br)nn(-c4cc(/C=C/P(C)(C)=O)c5ncccc5c4)c3n2)C1` [(1R,3R)-3-[[3-bromo-1-[8-[(E)-2-dimethylphosphorylvinyl]-6-quinolyl]pyrazolo[3,4-d]pyrimidin-6-yl]amino]-N,1-dimethyl-cyclopentanecarboxamide]: the IC50 under setting [1] lay within 25 to 200 nM.

`CNC(=O)[C@]1(C)CC[C@@H](Nc2ncc3c(Br)nn(-c4ccc5ncn(CCN)c(=O)c5c4)c3n2)C1`: under setting [1], the IC50 lay within 25 to 200 nM.

As for `CNC(=O)[C@]1(C)CC[C@@H](Nc2ncc3c(Br)nn(-c4ccc(-c5nnc(C(C)(C)N)o5)c(F)c4)c3n2)C1` [(1R,3R)-3-[[1-[4-[5-(1-amino-1-methyl-ethyl)-1,3,4-oxadiazol-2-yl]-3-fluoro-phenyl]-3-bromo-pyrazolo[3,4-d]pyrimidin-6-yl]amino]-N,1-dimethyl-cyclopentanecarboxamide], under setting [1], the IC50 was 25 to 200 nM.

With `CNC(=O)[C@]1(C)CC[C@@H](Nc2ncc3c(Br)nn(-c4ccc(-c5nnc(CCOC)o5)cc4)c3n2)C1` [(1R,3R)-3-[[3-bromo-1-[4-[5-(2-methoxy-ethyl)-1,3,4-oxadiazol-2-yl]phenyl]pyrazolo [3,4-d]pyrimidin-6-yl]amino]-N,1-dimethyl-cyclopentanecarboxamide], the IC50 under setting [1] was less than 25 nM.

As for `CNC(=O)[C@]1(C)CC[C@@H](Nc2ncc3c(Br)nn(-c4ccc5nc(NC(C)=O)ncc5c4)c3n2)C1` [(1R,3R)-3-[[1-(2-acetamidoquinazolin-6-yl)-3-bromo-pyrazolo[3,4-d]pyrimidin-6-yl]amino]-N,1-dimethyl-cyclopentane-carboxamide; 2,2,2-trifluoroacetic acid], the IC50 under setting [1] was 25 to 200 nM.

As for `Cc1nnc(-c2ccc(-n3nc(Br)c4cnc(N[C@@H]5CC[C@@H](P(C)(C)=O)C5)nc43)cc2CCS(C)(=O)=O)s1` [3-bromo-N-[(1R,3R)-3-dimethylphosphoryl-cyclopentyl]-1-[3-(2-methylsulfonylethyl)-4-(5-methyl-1,3,4-thiadiazol-2-yl)phenyl] pyrazolo[3,4-d]pyrimidin-6-amine], under setting [1], the IC50 lay within 25 to 200 nM.

Regarding `Cc1nnc(-c2ccc(-n3nc(Br)c4cnc(N[C@@H]5CCOC5)nc43)cc2)s1` [3-bromo-1-[4-(5-methyl-1,3,4-thiadiazol-2-yl)phenyl]-N-[(3R)-tetrahydrofuran-3-yl] pyrazolo[3,4-d]pyrimidin-6-amine], under setting [1], the IC50 fell in the range of 25 to 200 nM.

For `CN(CC1(C)COC1)C(=O)C1(C)CC[C@@H](Nc2ncc3c(Br)nn(-c4cc(F)c5ncccc5c4)c3n2)C1` (some centres unmarked), under setting [1], the IC50 was less than 25 nM.

In the case of `O=C([C@@H]1CC[C@@H](Nc2ncc3c(Br)nn(-c4ccc5ncccc5c4)c3n2)C1)N1CCN(CCO)CC1` [((1R,3R)-3-((3-bromo-1-(quinolin-6-yl)-1H-pyrazolo[3,4-d]pyrimidin-6-yl)amino)cyclopentyl)(4-(2-hydroxyethyl)piperazin-1-yl)methanone], the IC50 under setting [1] was 25 to 200 nM.

For `CNC(=O)[C@@H]1CC[C@@H](Nc2ncc3c(Br)nn(-c4cnc5c(C#N)cccc5c4)c3n2)C1` [(1R,3R)-3-[[3-bromo-1-(8-cyano-3-quinolyl)pyrazolo[3,4-d]pyrimidin-6-yl]amino]-N-methyl-cyclopentanecarboxamide], the IC50 under setting [1] was 25 to 200 nM.

For the compound `CNC(=O)[C@]1(C#N)CC[C@@H](Nc2ncc3c(Br)nn(-c4ccc(-c5nnc(C)s5)cc4)c3n2)C1`, the IC50 under setting [1] lay within 25 to 200 nM.

Regarding `Cc1nnc(-c2ccc(-n3nc(Br)c4cnc(N[C@@H]5CCC(C)(CP(C)(C)=O)C5)nc43)cc2CCC#N)s1` (some centres unmarked), the IC50 under setting [1] was in the range of 25 to 200 nM.

`CNC(=O)[C@]1(C)CC[C@@H](Nc2ncc3c(Br)nn(-c4cc(N5CCNCC5)c5ncccc5c4)c3n2)C1`: the IC50 under setting [1] was 25 to 200 nM.

`CC1(C(=O)N2CC3CCC(C2)O3)CC[C@@H](Nc2ncc3c(Br)nn(-c4cc(F)c5ncccc5c4)c3n2)C1` (stereo partly drawn) [[(3R)-3-[[3-bromo-1-(8-fluoro-6-quinolyl)pyrazolo[3,4-d]pyrimidin-6-yl]amino]-1-methyl-cyclopentyl]-(8-oxa-3-azabicyclo [3.2.1]octan-3-yl)methanone]: the IC50 under setting [1] is less than 25 nM.

As to `C[C@@H]1CN(C(=O)C2(C)CC[C@@H](Nc3ncc4c(Br)nn(-c5cc(F)c6ncccc6c5)c4n3)C2)C[C@@H](C)O1` (stereo partly drawn) [[(3R)-3-[[3-bromo-1-(8-fluoro-6-quinolyl)pyrazolo[3,4-d]pyrimidin-6-yl]amino]-1-methyl-cyclopentyl]-[(2R,6R)-2,6-dimethylmorpholin-4-yl]methanone], the IC50 under setting [1] lay within 25 to 200 nM.

On to `CS(=O)(=O)CCNC(=O)[C@@H]1CC[C@@H](Nc2ncc3c(Br)nn(-c4cc(C(F)F)c5ncccc5c4)c3n2)C1` [(1R,3R)-3-((3-bromo-1-(8-(difluoromethyl)quinolin-6-yl)-1H-pyrazolo[3,4-d]pyrimidin-6-yl)amino)-N-(2-(methylsulfonyl)ethyl)cyclo-pentane-1-carboxamide], for which the IC50 under setting [1] is 200 to 500 nM.

As for `CNC(=O)[C@]1(C)CC[C@@H](Nc2ncc3c(Br)nn(-c4ccc(-c5nnc(C(=O)N(C)CCN(C)C)s5)cc4)c3n2)C1` [5-[4-[3-bromo-6-[[(1R,3R)-3-methyl-3-(methylcarbamoyl)cyclopentyl]amino]pyrazolo[3,4-d]pyrimidin-1-yl]phenyl]-N-[2-(dimethylamino)ethyl]-N-methyl-1,3,4-thiadiazole-2-carboxamide], under setting [1], the IC50 was in the range of 25 to 200 nM.

`CNC(=O)[C@]1(C)CC[C@@H](Nc2ncc3c(Br)nn(-c4ccc(C#N)c(OCCOC)c4)c3n2)C1` [(1R,3R)-3-[[3-bromo-1-[4-cyano-3-(2-methoxyethoxy)phenyl]pyrazolo[3,4-d]pyrimidin-6-yl]amino]-N,1-dimethyl-cyclopentanecarboxamide]: the IC50 under setting [1] lay within 25 to 200 nM.

`Cc1nnc(-c2ccc(-n3nc(Br)c4cnc(N[C@@H]5CC[C@@](C)(N)C5)nc43)cc2CCC#N)s1`: the IC50 under setting [1] is 25 to 200 nM.

Turning to `Cc1nnc(-c2ccc(-n3nc(Br)c4cnc(N[C@@H]5CC[C@H](P(C)(C)=O)C5)nc43)cc2)s1` [3-bromo-N-[(1R,3S)-3-dimethylphosphoryl-cyclopentyl]-1-[4-(5-methyl-1,3,4-thiadiazol-2-yl)phenyl]pyrazolo[3,4-d]pyrimidin-6-amine], under setting [1], the IC50 lay within 25 to 200 nM.

Turning to `CNC(=O)[C@]1(C)CC[C@@H](Nc2ncc3c(Br)nn(-c4ccc5c(c4)OCC(=O)N5CCO)c3n2)C1` [(1R,3R)-3-[[3-bromo-1-[4-(2-hydroxy-ethyl)-3-oxo-1,4-benzoxazin-7-yl]pyrazolo[3,4-d]pyrimidin-6-yl]amino]-N,1-dimethyl-cyclopentanecarboxamide], under setting [1], the IC50 lay within 25 to 200 nM.

On to `CN1CN(C(=O)C2(C)CC[C@@H](Nc3ncc4c(Br)nn(-c5cc(F)c6ncccc6c5)c4n3)C2)CC1=O` (stereo partly drawn) [1-[(3R)-3-[[3-bromo-1-(8-fluoro-6-quinolyl)pyrazolo[3,4-d]pyrimidin-6-yl]amino]-1-methyl-cyclopentanecarbonyl]-3-methyl-imidazolidin-4-one], for which, under setting [1], the IC50 is less than 25 nM.

(Values after patent US11046699B2, “Pyrazolo-pyrimidin-amino-cycloalkyl compounds and their therapeutic uses” (RAPT THERAPEUTICS, INC., priority 2018, dated 2021).)
